How the values of the data set were obtained:
Solubility profiles for co-crystals were determined by UV-vis spectroscopy (Perkin Elmer-Lambda 25 UV-vis spectrometer, 400 nm).
The solubility of KP10 in 1:1 ethanol/water (V/V %) was determined by UV-vis spectroscopy, with a wavelength of 360 nm.
The solubility of KP15 in 1:1 ethanol/water (V/V %) was determined by UV-vis spectroscopy, with a wavelength of 300 nm.

As to “Co-Crystal of Hesperetin and Iso-Nicotinamide [KP15]”, the “increase in the solubility of hesperetin in the co-crystal when compared to pure hesperetin” value was “approximately 12 fold”.

In the case of “Co-Crystal of Quercetin and Iso-Nicotinamide [KP10]”, the “increase in the solubility of quercetin in the co-crystal when compared to quercetin dehydrate” value is given as approximately 6 fold.

Values taken from patent US10842797B2, “Nutraceutical co-crystal compositions” (UNIVERSITY OF SOUTH FLORIDA, priority 2007, dated 2020).
